According to patent US7323314B2, “Members of the capsaicin/vanilloid receptor family of proteins and uses thereof” (Bayer HealthCare AG, priority 1998, dated 2008):

Experiments:
[1] = molecular target: T1, Human VR2 (Homo sapiens, UniProt Q9Y5S1); test: Whole-cell patch-clamp of VR2 transiently expressed in HEK293 cells; type: cell-based
T1 construct: expressed in transfected cells; host or cells: Xenopus oocytes injected with cRNA
T1 sequence (Q9Y5S1 1-764): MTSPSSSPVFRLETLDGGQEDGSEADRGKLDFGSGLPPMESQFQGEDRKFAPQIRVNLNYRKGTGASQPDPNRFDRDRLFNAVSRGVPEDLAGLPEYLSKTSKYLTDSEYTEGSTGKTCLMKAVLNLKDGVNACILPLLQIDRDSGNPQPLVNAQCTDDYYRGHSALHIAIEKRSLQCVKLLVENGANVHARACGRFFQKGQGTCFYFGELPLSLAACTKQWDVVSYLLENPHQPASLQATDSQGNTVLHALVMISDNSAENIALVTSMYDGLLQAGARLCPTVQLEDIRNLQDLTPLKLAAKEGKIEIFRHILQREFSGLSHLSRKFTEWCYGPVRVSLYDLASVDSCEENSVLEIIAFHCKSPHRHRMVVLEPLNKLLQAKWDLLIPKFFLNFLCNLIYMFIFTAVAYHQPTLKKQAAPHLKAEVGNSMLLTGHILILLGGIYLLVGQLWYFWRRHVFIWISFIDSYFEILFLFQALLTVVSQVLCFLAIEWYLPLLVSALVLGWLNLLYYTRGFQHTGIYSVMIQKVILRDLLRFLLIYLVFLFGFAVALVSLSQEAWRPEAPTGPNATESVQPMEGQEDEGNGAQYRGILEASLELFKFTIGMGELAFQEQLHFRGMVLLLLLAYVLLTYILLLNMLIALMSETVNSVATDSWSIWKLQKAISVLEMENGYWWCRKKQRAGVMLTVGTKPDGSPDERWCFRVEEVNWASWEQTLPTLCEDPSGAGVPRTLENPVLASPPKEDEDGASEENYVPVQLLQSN
Description: Human VR2 was functionally characterized in both HEK293 cells and Xenopus oocytes using electrophysiological methods. VR2 (in the pcDNA3.1 vector purchased by Invitrogen) was transiently expressed in HEK293 cells (ATCC) and recordings were performed 48 hours after transfection of cells using the whole-cell patch-clamp method (described in Bertil Hille, Ionin Channels of excitable membranes, 1992; Hammill et al. (1981) Pluger Arch. 391:85-100).

[2] = molecular target: T1, Human VR2; test: Binding of [3H]-resiniferatoxin to membranes isolated from HEK293 cell homogenates (VR2); conditions: 0.1-10 nM concentration
[3] = molecular target: T2, human VR1 (Homo sapiens, UniProt Q8NER1, A11T/S41P/T469I); test: Binding of [3H]-resiniferatoxin to membranes isolated from HEK293 cell homogenates (VR1); conditions: 0.1-10 nM concentration
T2 construct: expressed in transfected cells; host or cells: HEK293 cells (membranes)
T2 sequence (Q8NER1 whole entry A11T/S41P/T469I): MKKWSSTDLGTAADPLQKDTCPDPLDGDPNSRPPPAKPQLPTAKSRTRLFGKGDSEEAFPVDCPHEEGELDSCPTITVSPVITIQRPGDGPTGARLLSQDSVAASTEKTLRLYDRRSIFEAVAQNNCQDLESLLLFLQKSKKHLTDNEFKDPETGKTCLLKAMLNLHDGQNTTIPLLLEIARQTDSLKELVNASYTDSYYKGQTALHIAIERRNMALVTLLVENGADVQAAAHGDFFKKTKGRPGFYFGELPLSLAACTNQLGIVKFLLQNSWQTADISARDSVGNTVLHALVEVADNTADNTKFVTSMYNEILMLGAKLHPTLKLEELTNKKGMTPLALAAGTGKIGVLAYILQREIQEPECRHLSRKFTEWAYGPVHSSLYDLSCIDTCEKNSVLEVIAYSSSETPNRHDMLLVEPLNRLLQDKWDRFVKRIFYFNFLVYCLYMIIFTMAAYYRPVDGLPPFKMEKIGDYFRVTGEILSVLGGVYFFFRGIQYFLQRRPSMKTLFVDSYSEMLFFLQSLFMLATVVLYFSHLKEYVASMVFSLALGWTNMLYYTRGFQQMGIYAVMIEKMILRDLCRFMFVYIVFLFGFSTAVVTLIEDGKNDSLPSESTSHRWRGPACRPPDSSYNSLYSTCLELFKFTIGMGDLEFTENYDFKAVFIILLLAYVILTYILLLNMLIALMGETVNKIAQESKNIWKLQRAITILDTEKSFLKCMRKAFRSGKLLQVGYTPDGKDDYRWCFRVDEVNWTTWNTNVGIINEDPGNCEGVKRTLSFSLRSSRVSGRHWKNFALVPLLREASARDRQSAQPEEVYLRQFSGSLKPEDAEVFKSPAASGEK

[4] = molecular target: T1, Human VR2; test: Two-electrode voltage-clamp of VR2 in Xenopus oocytes; type: cell-based; conditions: heat stimulation (48-50° C.), 1-10 μM concentration
Description: For the oocyte studies, human VR2 was subcloned into an oocyte expression vector containing 5′- and 3′-UTR of Xenopus β-globin (Chiara et al. (1999) Biochemistry 38(20)6689-6698). In vitro trasncription was carried out as described in Chiara et al. (supra) and cRNA (10-100 ng) was then injected into the oocytes. VR2 function was characterized in the oocytes 48 hours after cRNA injection using a standard two-electrode voltage-clamp.

C=C(C)[C@]12C[C@@H](C)[C@@]34O[C@](Cc5ccccc5)(O[C@@H]1[C@@H]3C=C(COC(=O)Cc1ccc(O)c(OC)c1)C[C@]1(O)C(=O)C(C)=C[C@@H]41)O2 [resiniferatoxin]
induction of currents from VR2 ([1]; 0.1-3 μM concentration): do not induce any currents
specific binding to VR2 [2]: no specific binding
binding to human VR1 [3]: high affinities

Oc1cc2c(cc1O)CN(C(=S)NCCc1ccc(Cl)cc1)CCC2 [capsazepin, capsazepine]
block of the heat response of VR2 [4]: blocks the heat response of VR2 reversibly
block of heat-evoked currents of VR2 ([1]; heat stimulation (>50° C.), 10 μM concentration): reversibly blocked

COc1cc(CNC(=O)CCCC/C=C/C(C)C)ccc1O [Capsaicin, capsaicin]
induction of currents from VR2 ([1]; 1-10 μM concentration): do not induce any currents
